Where two headings read alike, the source gives them in different places. Blank lines part the entries; values can stand above or below the compound they belong to.
How the values were obtained:
[1] = Particle size and polydispersity index of nanoparticle compositions (Zetasizer Nano ZS); assay type: physicochemical
Outline: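 Zetasizer Nano ZS; samples in 1×PBS; read-out: particle size plus polydispersity index.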

[2] = Encapsulation efficiency of RNA (QUANT-IT RIBOGREEN RNA assay); assay type: physicochemical
Outline: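 RiboGreen fluorescence (ex ~480, em ~520 nm) measured after 15 min at 37 °C on samples at ~5 μg/mL in TE, pH 7.5, ± 2% Triton X-100 solution. After blank subtraction, free RNA is given as intact-sample signal divided by disrupted-sample signal.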

[3] = pKa of nanoparticle compositions; assay type: physicochemical
LDL-c = assay: LDL levels in LDLr−/− mice after mRNA encoding the LDL receptor; assay type: in vivo, LDLR knockout mice; conditions: Mus musculus; Table 7b; LDLr−/− mice, 0.5 mpk, LDLr; read-out: LDL levels lipid/untreated LDLr−/− mice 0.5 mpk, LDLr
[4] = Concentration of RNA in nanoparticle composition (ultraviolet-visible spectroscopy); assay type: physicochemical; conditions: Table 5; hEPO mRNA; 40:20:38.5:1.5 Lipid:DOPE:Chol:PEG-DMG
Procedure: Ultraviolet-visible spectroscopy can be used to determine the concentration of a therapeutic and/or prophylactic agent (e.g., RNA) in nanoparticle compositions. 100 μL of the diluted formulation in 1×PBS is added to 900 μL of a 4:1 (v/v) mixture of methanol and chloroform. After mixing, the absorbance spectrum of the solution is recorded, for example, between 230 nm and 330 nm on a DU 800 spectrophotometer (Beckman Coulter, Beckman Coulter, Inc., Brea, Calif.). The concentration of therapeutic and/or prophylactic agent in the nanoparticle composition can be calculated based on the extinction coefficient of the therapeutic and/or prophylactic agent used in the composition and on the difference between the absorbance at a wavelength of, for example, 260 nm and the baseline value at a wavelength of, for example, 330 nm.

[5] = test system: luciferase (Luc) mRNA expression; assay: Expression of Luc induced by sample formulations, whole-body bioluminescence after intravenous administration; assay type: in vivo; conditions: Table 2, mice, i.v., 0.5 mg/kg
Outline: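 Read-out is whole-body bioluminescence at 3, 6 and 24 h after a single intravenous dose of 0.5 mg/kg Luc mRNA in nanoparticle formulations. Groups of n=6 mice; PBS and standard MC3 formulation as references.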

[6] = test system: modified luciferase expression; assay: Expression of Luc in different organs (liver, lung, spleen, femur) 6 hours after intravenous administration; assay type: in vivo; conditions: i.v., 0.5 mpk
Procedure: The efficacy of the nanoparticle compositions presented in Tables 1, 1a, 17-1, 19-1, 20-1 and 21-1 was further evaluated by measuring the expression of modified luciferase in the liver, lung, spleen, and femur upon administration of a given composition. Formulations were administered intravenously to mice (n=3) at a dosage of 0.5 mpk and bioluminescence measured after 6 hours. The standard MC3 formulation and a PBS control were also tested.

IL-6 = assay: Cytokine production induced by sample formulations: IL-6; assay type: in vivo; conditions: Table 4; mice, i.v., 0.5 mpk, 6 hours; in pg/mL (unit assumed)
Outline: (§1)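 Cytokine levels were quantified at 6 hours in mice given the nanoparticle compositions i.v. at 0.5 mpk. MC3 standard formulation and PBS served as comparators.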

IP-10 = assay: Cytokine production induced by sample formulations: IP-10; assay type: in vivo; conditions: Table 4; mice, i.v., 0.5 mpk, 6 hours; in pg/mL (unit assumed)
Outline: as §1

hEPO mRNA expression = assay: Expression of hEPO in rats after intravenous administration; assay type: in vivo
Procedure: PBS (phosphate buffered saline) is used as control.
Formulations were prepared according to Table 5 and included mRNA encoding hEPO.
[…] After the 48 hour time point, livers and spleens were harvested and frozen.

[7] = Lipid levels in liver and spleen 48 hours after administration; assay type: in vivo, rats; conditions: 48 hours after administration; for concentration at 48 h: Sprague-Dawley, rat, intravenous
Procedure: Formulations were administered intravenously to rats (n=3 or 6) at a dosage of 0.2 mg/kg or 0.5 mg/kg (mpk) and hEPO levels measured at 3, 6, and 24 hour time points. After the 48 hour time point, livers and spleens were harvested and frozen.
The amount of lipid in the liver and spleen 48 hours after administration of a nanoparticle composition was also measured. […] In contrast, approximately 60% of doses including MC3 or Compound 22 remained in the liver after 48 hours. Less than 3% of the dose remained in the spleen for each composition tested.

Luc expression = Luc expression in CD-1 mice (AUC relative to MC3); assay type: in vivo; conditions: Table 7c
Procedure: FIG. 15 is a graph summarizing luciferase expression levels at 6 h after administration of nanoparticle compositions containing compounds of the disclosure to CD-1 mice at a dose of 0.5 mpk. Total light flux values were acquired via body luminescent imaging (BLI) 6 h after administration. In this Figure, the numbers 1-7 and 10 refer to the compositions containing Compounds 4-10 and MC3 respectively.
(§2) In contrast, hEPO expression in rats induced by administration of a nanoparticle composition including a compound according to one of formulae (I), (Ia1)-(Ia6), (Ib), (II), (IIa), (III), and (IIIa) was substantially […] than that measured for MC3. […] Table 7c and 7d show additional protein expressions and clearance data from compositions with various compounds disclosed herein as compared to with MC3.

[8] = Lipid clearance: % dose remaining in mouse liver 6 h and 24 h after administration of nanoparticle compositions; assay type: in vivo, CD-1 mice; conditions: Table 7c
Text: as §2

[9] = Table 1, rows without footnote mark
[10] = Table 1, rows without footnote mark (lipid:DOPE:cholesterol:PEG-DMG 40:20:38.5:1.5, Luc mRNA; MC3 standard formulation)
[11] = Table 5, hEPO mRNA, 40:20:38.5:1.5 Lipid:DOPE:Chol:PEG-DMG
[12] = Table 6, rats, i.v., 0.2 mg/kg or 0.5 mg/kg
[13] = Table 1, # formulated with hEPO mRNA

SMILES: CCCCCCCCCCCCCCN(CCCCCCCCCCCCCC)CCN1CCN(CCN(CCCCCCCCC)CCN(CCCCCCCCC)CCCCCCCCC)CC1 [Compound 20, N^1-(2-(4-(2-(Ditetradecylamino)ethyl)piperazin-1-yl)ethyl)-N^1,N^2,N^2-trinonylethane-1,2-diamine]
PDI [1, 9]: 0.150
Size (nm) [1, 10]: 106.4 nm
PDI [1, 11]: 0.14
Size (nm) [1, 11]: 114.5 nm
EE (%) [2, 9]: 84.2%
EE (%) [2, 11]: 94.39%
pKa [3, 9]: 6.12
Conc. [4]: 1264.28 µg/mL
Total Flux 3 hours ([5]; 3 hours): 1.00E+11
Total Flux 6 hours ([5]; 6 hours): 1.11E+11
Total Flux 24 hours ([5]; 24 hours): 4.60E+09
Total Flux Femur ([6]; Table 3, mice, femur): 8.91E+06
Total Flux Liver ([6]; Table 3, mice, liver): 1.42E+10
Total Flux Lung ([6]; Table 3, mice, lung): 1.46E+08
Total Flux Spleen ([6]; Table 3, mice, spleen): 6.11E+07
total flux in organs, rank or organ comparison (in words) ([6]; mice, each organ or overall): highest total flux
IL-6 (IL-6): 127
IP-10 (IP-10): 2080
hEPO (pg/mL) 6 hours (hEPO mRNA expression; [12]): 227420 pg/mL

SMILES: CCCCCCCCCCCCN(CCCCCCCCCCCC)CCN(CCCCCCCCCCCC)CCN1CCN(CCN(CCCCCCCCCCCC(=O)OC)CCCCCCCCCCCC(=O)OC)CC1 [Compound 16, Dimethyl 12,12′-((2-(4-(2-((2-(didodecylamino)ethyl)(dodecyl)amino)ethyl)piperazin-1-yl)ethyl)azanediyl)didodecanoate]
PDI [1, 13]: 0.140
Size (nm) [1, 13]: 77.4 nm
PDI [1, 11]: 0.14
Size (nm) [1, 11]: 77.4 nm
EE (%) [2, 13]: 98.2%
EE (%) [2, 11]: 98.22%
pKa [3, 13]: 6.28
pKa [3, 11]: 6.282
Conc. [4]: 665.11 µg/mL
hEPO (pg/mL) 3 hours (hEPO mRNA expression; Table 6, rats, i.v., 0.2 mg/kg or 0.5 mg/kg, 3 hours): 35387 pg/mL
hEPO (pg/mL) 6 hours (hEPO mRNA expression; [12]): 41720 pg/mL
hEPO (pg/mL) 24 hours (hEPO mRNA expression; Table 6, rats, i.v., 0.2 mg/kg or 0.5 mg/kg, 24 hours): 17184 pg/mL
Lipid/MC3 hEPO S.D. (rats) (hEPO mRNA expression; hEPO expression relative to MC3, S.D. rats, intravenous): 0.031
hEPO expression in rats, comparison (in words) (hEPO mRNA expression; rats, i.v., 0.2 or 0.5 mg/kg, Tables 6, 7a): lowest hEPO expression at each time point
concentration at 48 h ([7]; liver, read-out: Lipid in liver): 597 ng/g
concentration at 48 h ([7]; spleen, read-out: Lipid in spleen): 293 ng/g
% remaining dose in liver ([7]; liver): 0.79%
% remaining dose in spleen ([7]; spleen): 0.026%

SMILES: CCCCCCCCCCCCN(CCN(CCCCCCCCC)CCCCCCCCC)CC(=O)N1CCN(C(=O)CN(CCCCCCCCC)CCCCCCCCC)CC1 [Compound 5, 2-(Dinonylamino)-1-(4-(N-(2-(dinonylamino)ethyl)-N-dodecylglycyl)piperazin-1-yl)ethan-1-one]
PDI [1, 9]: 0.140
Size (nm) [1, 10]: 85.1 nm
EE (%) [2, 9]: 98.1%
pKa [3, 9]: 7.01
response vs control in vivo at 0.5 mg/kg (LDL-c): 47%

SMILES: CCCCCCCCCN(CCCCCCCCC)CCN(CCCCCCCCC)CC(=O)N1CCN(C(=O)CN(CCCCCCCCC)CCCCC(=O)OCCCC)CC1 [Compound 55, Butyl 5-((2-(4-(N-(2-(dinonylamino)ethyl)-N-nonylglycyl)piperazin-1-yl)-2-oxoethyl)(nonyl)amino)pentanoate]
PDI ([1]; Table 1b): 0.23
Size (nm) ([1]; Table 1b): 119.5 nm
EE (%) ([2]; Table 1b): 95.2%
AUC (p/s*h) (Luc expression): 2.00E+10 p/s*h
% Dose Remaining 6 hr [8]: 2.58%
% Dose Remaining 24 hr [8]: 1.60%

SMILES: CCCCCCCCCN(CCCCCC(=O)OCCC)CCC1CCN(C(=O)CN(CCCCCCCCC)CCN(CCCCCCCCC)CCCCCCCCC)CC1 [Compound 59, Propyl 6-((2-(1-(N-(2-(dinonylamino)ethyl)-N-nonylglycyl)piperidin-4-yl)ethyl)(nonyl)amino)hexanoate]
PDI ([1]; Table 1b): 0.23
Size (nm) ([1]; Table 1b): 104.7 nm
EE (%) ([2]; Table 1b): 98.6%
AUC (p/s*h) (Luc expression): 1.19E+11 p/s*h
% Dose Remaining 6 hr [8]: 6.99%
% Dose Remaining 24 hr [8]: 5.03%

More lines, main results first:

PDI [1, 9]: 0.130
Size (nm) [1, 10]: 85.1 nm
EE (%) [2, 9]: 99.1%
pKa [3, 9]: 6.94
SMILES: CCCCCCCCCCCCN(CCCCCCCCCCCC)CCN(CCCCCCCCCCCC)CC(=O)N1CCN(C(=O)CN(CCCCCCCCC)CCCCCCCCC)CC1 [Compound 7, 2-((2-(Didodecylamino)ethyl)(dodecyl)amino)-1-(4-(dinonylglycyl)piperazin-1-yl)ethan-1-one]
response vs control in vivo at 0.5 mg/kg (LDL-c): 63%

PDI [1, 9]: 0.170
Size (nm) [1, 10]: 78.0 nm
EE (%) [2, 9]: 99.5%
pKa [3, 9]: 6.76
SMILES: CCCCCCCCCCCCN(CCCCCCCCCCCC)CC(=O)N1CCN(C(=O)CN(CCCCCCCCCCCC)CCN(CCCCCCCCC)CCCCCCCCC)CC1 [Compound 9, 2-(Didodecylamino)-1-(4-(N-(2-(dinonylamino)ethyl)-N-dodecylglycyl)piperazin-1-yl)ethan-1-one]
response vs control in vivo at 0.5 mg/kg (LDL-c): 87%

PDI [1, 9]: 0.160
Size (nm) [1, 10]: 81.4 nm
EE (%) [2, 9]: 98.9%
pKa [3, 9]: 6.62
SMILES: CCCCCCCCCCCCN(CCCCCCCCCCCC)CCN(CCCCCCCCC)CC(=O)N1CCN(C(=O)CN(CCCCCCCCC)CCCCCCCCC)CC1 [Compound 6, 2-((2-(Didodecylamino)ethyl)(nonyl)amino)-1-(4-(dinonylglycyl)piperazin-1-yl)ethan-1-one]
response vs control in vivo at 0.5 mg/kg (LDL-c): 91%

PDI [1, 9]: 0.130
Size (nm) [1, 10]: 81.3 nm
EE (%) [2, 9]: 99.2%
pKa [3, 9]: 6.58
SMILES: CCCCCCCCCCCCN(CCCCCCCCCCCC)CCN(CCCCCCCCC)CC(=O)N1CCN(C(=O)CN(CCCCCCCCCCCC)CCCCCCCCCCCC)CC1 [Compound 10, 2-(Didodecylamino)-1-(4-(N-(2-(didodecylamino)ethyl)-N-nonylglycyl)piperazin-1-yl)ethan-1-one]
response vs control in vivo at 0.5 mg/kg (LDL-c): 98%

PDI [1, 9]: 0.110
Size (nm) [1, 10]: 83.3 nm
EE (%) [2, 9]: 98.5%
pKa [3, 9]: 6.87
SMILES: CCCCCCCCCCCCN(CCCCCCCCCCCC)CC(=O)N1CCN(C(=O)CN(CCCCCCCCC)CCN(CCCCCCCCC)CCCCCCCCC)CC1 [Compound 8, 2-(Didodecylamino)-1-(4-(N-(2-(dinonylamino)ethyl)-N-nonylglycyl)piperazin-1-yl)ethan-1-one]
response vs control in vivo at 0.5 mg/kg (LDL-c): 66%

— US10195156B2, “Compounds and compositions for intracellular delivery of agents” (ModernaTX, Inc., priority 2015, dated 2019)
